In patent US10588317B2, “Isoxazoline-substituted benzamides and analogues as insecticides” (priority 2015, dated 2020):
Read-outs that look alike come from different tables or passages of the source.

Experiments:
Type in all cases: in vivo
Tetranychus urticae = Tetranychus urticae (two-spotted spider mite): feeding/contact activity; conditions: 192 h
Method: Bean leaf discs on agar in 24-well microtiter plates were sprayed with aqueous test solutions prepared from 10'000 ppm DMSO stock solutions. After drying the leaf discs were infested with a mite population of mixed ages. The samples were assessed for mortality on mixed population (mobile stages) 8 days after infestation.

Diabrotica balteata = Diabrotica balteata (corn root worm), sprayed maize sprouts; conditions: 96 h, read-out: effect in at least one of the two categories (mortality or growth inhibition); for percent effect (mortality or growth inhibition) at 200 ppm: application rate 200 ppm, L2 larvae, 4 days after infestation
In short: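 Maize sprouts on agar sprayed with aqueous dilutions of DMSO stocks, dried, then infested with L2 larvae (6–10 per well). Mortality and growth inhibition scored against untreated controls 4 days after infestation, at 200 ppm application rate.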

Myzus persicae = Myzus persicae (green peach aphid): feeding/contact activity; conditions: 144 h
Method: (§1) Sunflower leaf discs were placed onto agar in a 24-well microtiter plate and sprayed with aqueous test solutions prepared from 10'000 ppm DMSO stock solutions. After drying, the leaf discs were infested with an aphid population of mixed ages. The samples were assessed for mortality 6 days after infestation.

Thrips tabaci = Thrips tabaci (onion thrips): feeding/contact activity; conditions: 144 h
Method: as §1, with “on” for “onto”, “in” for “in a”, “plates” for “plate”, “drying” for “drying,”, “a Thrips” for “an aphid”

Spodoptera littoralis = Spodoptera littoralis (Egyptian cotton leaf worm), sprayed cotton leaf discs; conditions: foliar, 72 h, read-out: control (mortality, anti-feeding effect, growth inhibition)
In short: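 Cotton leaf discs on agar sprayed with aqueous test solutions made from 10'000 ppm DMSO stock; after drying, infested with five L1 larvae. Mortality, anti-feeding and growth inhibition scored versus untreated samples 3 days after infestation; control counted when any category exceeds untreated.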

Plutella xylostella = Plutella xylostella (diamond back moth), artificial diet; conditions: 120 h, read-out: effect in at least one of the two categories (mortality or growth inhibition); for percent effect (mortality or growth inhibition) at 200 ppm: application rate 200 ppm, L2 larvae, 5 days after infestation
In short: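 Artificial diet in 24-well plates treated with aqueous test solutions made from 10'000 ppm DMSO stocks, dried, then infested with L2 larvae (10 to 15 per well). Mortality and growth inhibition scored against untreated samples 5 days after infestation; activity cut-off at least 80% in either category at 200 ppm.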

Euschistus heros = Euschistus heros (neotropical brown stink bug), sprayed soybean leaves; conditions: 120 h, read-out: effect in at least one of the two categories (mortality or growth inhibition); for percent effect (mortality or growth inhibition) at 200 ppm: application rate 200 ppm, N2 nymphs, 5 days after infestation
In short: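 Soybean leaves on agar sprayed with aqueous dilutions of DMSO stocks, dried, then infested with N2 nymphs. Mortality and growth inhibition scored against untreated samples 5 days after infestation; application rate 200 ppm.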

[1] = application rate 200 ppm, mixed population (mobile stages), 8 days after infestation, read-out: mortality
[2] = application rate 200 ppm, aphid population of mixed ages, 6 days after infestation, read-out: mortality
[3] = application rate 200 ppm, Thrips population of mixed ages, 6 days after infestation, read-out: mortality
[4] = application rate 200 ppm, L1 larvae, 3 days after infestation

Cc1cc(C2=NO[C@](c3cc(Cl)cc(C(F)(F)F)c3)(C(F)(F)F)C2)ccc1C(=O)N[C@H]1CON(S(=O)(=O)CCl)C1 [Compound A217]
≥ 80%: mortality at 200 ppm (Tetranychus urticae; [1]) | percent effect (mortality or growth inhibition) at 200 ppm (Diabrotica balteata) | mortality at 200 ppm (Myzus persicae; [2]) | mortality at 200 ppm (Thrips tabaci; [3]) | mortality at 200 ppm (Spodoptera littoralis; [4]) | percent effect (mortality or growth inhibition) at 200 ppm (Plutella xylostella) | percent effect (mortality or growth inhibition) at 200 ppm (Euschistus heros)

Cc1cc(C2=NO[C@@](c3cc(Cl)c(F)c(Cl)c3)(C(F)(F)F)C2)ccc1C(=O)NC1CON(S(=O)(=O)N(C)S(=O)(=O)N(C)C)C1 (stereo partly drawn) [Compound A79, 4-[(5S)-5-(3,5-dichloro-4-fluoro-phenyl)-5-(trifluoromethyl)-4H-isoxazol-3-yl]-N-[2-[dimethylsulfamoyl(methyl)sulfamoyl]isoxazolidin-4-yl]-2-methyl-benzamide]
≥ 80%: mortality at 200 ppm (Tetranychus urticae; [1]) | percent effect (mortality or growth inhibition) at 200 ppm (Diabrotica balteata) | mortality at 200 ppm (Myzus persicae; [2]) | mortality at 200 ppm (Thrips tabaci; [3]) | mortality at 200 ppm (Spodoptera littoralis; [4]) | percent effect (mortality or growth inhibition) at 200 ppm (Plutella xylostella) | percent effect (mortality or growth inhibition) at 200 ppm (Euschistus heros)

Cc1cc(C2=NO[C@](c3cc(Cl)c(F)c(Cl)c3)(C(F)(F)F)C2)ccc1C(=O)N[C@H]1CON(S(=O)(=O)CCl)C1 [Compound A164, N-[(4R)-2-(chloromethylsulfonyl)-1,2-oxazolidin-4-yl]-4-[(5R)-5-(3,5-dichloro-4-fluorophenyl)-5-(trifluoromethyl)-4H-1,2-oxazol-3-yl]-2-methylbenzamide]
≥ 80%: mortality at 200 ppm (Tetranychus urticae; [1]) | percent effect (mortality or growth inhibition) at 200 ppm (Diabrotica balteata) | mortality at 200 ppm (Myzus persicae; [2]) | mortality at 200 ppm (Thrips tabaci; [3]) | mortality at 200 ppm (Spodoptera littoralis; [4]) | percent effect (mortality or growth inhibition) at 200 ppm (Plutella xylostella) | percent effect (mortality or growth inhibition) at 200 ppm (Euschistus heros)

Cc1cc(C2=NO[C@@](c3cc(Cl)c(F)c(Cl)c3)(C(F)(F)F)C2)ccc1C(=O)NC1CON(S(=O)(=O)CCCl)C1 (stereo partly drawn) [Compound A7, N-[2-(2-chloroethylsulfonyl)isoxazolidin-4-yl]-4-[(5S)-5-(3,5-dichloro-4-fluoro-phenyl)-5-(trifluoromethyl)-4H-isoxazol-3-yl]-2-methyl-benzamide]
≥ 80%: mortality at 200 ppm (Tetranychus urticae) | percent control (mortality or growth inhibition) at 200 ppm (Diabrotica balteata) | mortality at 200 ppm (Myzus persicae) | mortality at 200 ppm (Thrips tabaci) | mortality at 200 ppm (Spodoptera littoralis) | percent control (mortality or growth inhibition) at 200 ppm (Plutella xylostella) | percent control (mortality or growth inhibition) at 200 ppm (Euschistus heros)

Cc1cc(C2=NO[C@@](c3cc(Cl)c(F)c(Cl)c3)(C(F)(F)F)C2)ccc1C(=O)NC1CON(S(N)(=O)=O)C1 (some centres unmarked) [Compound A71]
≥ 80%: mortality at 200 ppm (Tetranychus urticae; [1]) | percent effect (mortality or growth inhibition) at 200 ppm (Diabrotica balteata) | mortality at 200 ppm (Myzus persicae; [2]) | mortality at 200 ppm (Thrips tabaci; [3]) | mortality at 200 ppm (Spodoptera littoralis; [4]) | percent effect (mortality or growth inhibition) at 200 ppm (Plutella xylostella) | percent effect (mortality or growth inhibition) at 200 ppm (Euschistus heros)

Cc1cc(C2=NOC(c3cc(Cl)c(C#N)c(Cl)c3)(C(F)(F)F)C2)ccc1C(=O)NC1CON(S(C)(=O)=O)C1 (centres unmarked) [Compound A50]
≥ 80%: mortality at 200 ppm (Tetranychus urticae; [1]) | percent effect (mortality or growth inhibition) at 200 ppm (Diabrotica balteata) | mortality at 200 ppm (Myzus persicae; [2]) | mortality at 200 ppm (Thrips tabaci; [3]) | mortality at 200 ppm (Spodoptera littoralis; [4]) | percent effect (mortality or growth inhibition) at 200 ppm (Plutella xylostella) | percent effect (mortality or growth inhibition) at 200 ppm (Euschistus heros)

CCN(C)S(=O)(=O)N1C[C@@H](NC(=O)c2ccc(C3=NO[C@@](c4cc(Cl)cc(Cl)c4)(C(F)(F)F)C3)cc2Cl)CO1 [Compound A129, 2-chloro-4-[(5S)-5-(3,5-dichlorophenyl)-5-(trifluoromethyl)-4H-isoxazol-3-yl]-N-[(4R)-2-[ethyl(methyl)sulfamoyl]isoxazolidin-4-yl]benzamide]
≥ 80%: mortality at 200 ppm (Tetranychus urticae; [1]) | percent effect (mortality or growth inhibition) at 200 ppm (Diabrotica balteata) | mortality at 200 ppm (Myzus persicae; [2]) | mortality at 200 ppm (Thrips tabaci; [3]) | mortality at 200 ppm (Spodoptera littoralis; [4]) | percent effect (mortality or growth inhibition) at 200 ppm (Plutella xylostella) | percent effect (mortality or growth inhibition) at 200 ppm (Euschistus heros)

Cc1cc(C2=NO[C@@](c3cc(Cl)c(F)c(Cl)c3)(C(F)(F)F)C2)ccc1C(=O)NC1CON(S(=O)(=O)N(C)C(C)(C)C)C1 (stereo partly drawn) [Compound A100, N-[2-[tert-butyl(methyl)sulfamoyl]isoxazolidin-4-yl]-4-[(5S)-5-(3,5-dichloro-4-fluoro-phenyl)-5-(trifluoromethyl)-4H-isoxazol-3-yl]-2-methyl-benzamide]
≥ 80%: mortality at 200 ppm (Tetranychus urticae; [1]) | percent effect (mortality or growth inhibition) at 200 ppm (Diabrotica balteata) | mortality at 200 ppm (Myzus persicae; [2]) | mortality at 200 ppm (Thrips tabaci; [3]) | mortality at 200 ppm (Spodoptera littoralis; [4]) | percent effect (mortality or growth inhibition) at 200 ppm (Plutella xylostella) | percent effect (mortality or growth inhibition) at 200 ppm (Euschistus heros)

Cc1cc(C2=NO[C@@](c3cc(Cl)c(C(F)F)c(Cl)c3)(C(F)(F)F)C2)ccc1C(=O)N[C@@H]1CON(S(=O)(=O)N(C)C)C1 [Compound A196, 4-[(5S)-5-[3,5-dichloro-4-(difluoromethyl)phenyl]-5-(trifluoromethyl)-4H-1,2-oxazol-3-yl]-N-[(4S)-2-(dimethylsulfamoyl)-1,2-oxazolidin-4-yl]-2-methylbenzamide]
≥ 80%: mortality at 200 ppm (Tetranychus urticae; [1]) | percent effect (mortality or growth inhibition) at 200 ppm (Diabrotica balteata) | mortality at 200 ppm (Myzus persicae; [2]) | mortality at 200 ppm (Thrips tabaci; [3]) | mortality at 200 ppm (Spodoptera littoralis; [4]) | percent effect (mortality or growth inhibition) at 200 ppm (Plutella xylostella) | percent effect (mortality or growth inhibition) at 200 ppm (Euschistus heros)

Cc1cc(C2=NO[C@](c3cc(Cl)c(Cl)c(Cl)c3)(C(F)(F)F)C2)ccc1C(=O)N[C@H]1CON(S(=O)(=O)CF)C1 [Compound A216, N-[(4R)-2-(fluoromethylsulfonyl)-1,2-oxazolidin-4-yl]-2-methyl-4-[(5R)-5-(3,4,5-trichlorophenyl)-5-(trifluoromethyl)-4H-1,2-oxazol-3-yl]benzamide]
≥ 80%: mortality at 200 ppm (Tetranychus urticae; [1]) | percent effect (mortality or growth inhibition) at 200 ppm (Diabrotica balteata) | mortality at 200 ppm (Myzus persicae; [2]) | mortality at 200 ppm (Thrips tabaci; [3]) | mortality at 200 ppm (Spodoptera littoralis; [4]) | percent effect (mortality or growth inhibition) at 200 ppm (Plutella xylostella) | percent effect (mortality or growth inhibition) at 200 ppm (Euschistus heros)

Cc1cc(C2=NO[C@@](c3cc(Cl)c(Cl)c(Cl)c3)(C(F)(F)F)C2)ccc1C(=O)N[C@H]1CON(S(=O)(=O)C(F)F)C1 [Compound A231, N-[(4R)-2-(difluoromethylsulfonyl)-1,2-oxazolidin-4-yl]-2-methyl-4-[(5S)-5-(3,4,5-trichlorophenyl)-5-(trifluoromethyl)-4H-1,2-oxazol-3-yl]benzamide]
≥ 80%: mortality at 200 ppm (Tetranychus urticae; [1]) | percent effect (mortality or growth inhibition) at 200 ppm (Diabrotica balteata) | mortality at 200 ppm (Myzus persicae; [2]) | mortality at 200 ppm (Thrips tabaci; [3]) | mortality at 200 ppm (Spodoptera littoralis; [4]) | percent effect (mortality or growth inhibition) at 200 ppm (Plutella xylostella) | percent effect (mortality or growth inhibition) at 200 ppm (Euschistus heros)

Cc1cc(C2=NO[C@@](c3cc(Cl)c(Cl)c(Cl)c3)(C(F)(F)F)C2)ccc1C(=O)N[C@@H]1CON(S(=O)(=O)C2CC2)C1 [Compound A229, N-[(4S)-2-cyclopropylsulfonyl-1,2-oxazolidin-4-yl]-2-methyl-4-[(5S)-5-(3,4,5-trichlorophenyl)-5-(trifluoromethyl)-4H-1,2-oxazol-3-yl]benzamide]
≥ 80%: mortality at 200 ppm (Tetranychus urticae; [1]) | percent effect (mortality or growth inhibition) at 200 ppm (Diabrotica balteata) | mortality at 200 ppm (Myzus persicae; [2]) | mortality at 200 ppm (Thrips tabaci; [3]) | mortality at 200 ppm (Spodoptera littoralis; [4]) | percent effect (mortality or growth inhibition) at 200 ppm (Plutella xylostella) | percent effect (mortality or growth inhibition) at 200 ppm (Euschistus heros)

CCCCN(C)S(=O)(=O)N1CC(NC(=O)c2ccc(C3=NO[C@@](c4cc(Cl)c(Cl)c(Cl)c4)(C(F)(F)F)C3)cc2C)CO1 (stereo partly drawn) [Compound A85, N-[2-[butyl(methyl)sulfamoyl]isoxazolidin-4-yl]-2-methyl-4-[(5S)-5-(3,4,5-trichlorophenyl)-5-(trifluoromethyl)-4H-isoxazol-3-yl]benzamide]
≥ 80%: mortality at 200 ppm (Tetranychus urticae; [1]) | percent effect (mortality or growth inhibition) at 200 ppm (Diabrotica balteata) | mortality at 200 ppm (Myzus persicae; [2]) | mortality at 200 ppm (Thrips tabaci; [3]) | mortality at 200 ppm (Spodoptera littoralis; [4]) | percent effect (mortality or growth inhibition) at 200 ppm (Plutella xylostella) | percent effect (mortality or growth inhibition) at 200 ppm (Euschistus heros)

Cc1cc(C2=NO[C@@](c3cc(Cl)c(F)c(Cl)c3)(C(F)(F)F)C2)ccc1C(=O)NC1CON(S(=O)(=O)C(C)C)C1 (some centres unmarked) [Compound A17]
≥ 80%: mortality at 200 ppm (Tetranychus urticae; [1]) | percent effect (mortality or growth inhibition) at 200 ppm (Diabrotica balteata) | mortality at 200 ppm (Myzus persicae; [2]) | mortality at 200 ppm (Thrips tabaci; [3]) | mortality at 200 ppm (Spodoptera littoralis; [4]) | percent effect (mortality or growth inhibition) at 200 ppm (Plutella xylostella) | percent effect (mortality or growth inhibition) at 200 ppm (Euschistus heros)
